Data reported in PMC12005767 (Advanced Science, 2025).

Columns and labels:
HepG2 cells = assay: FFA-induced lipid accumulation in HepG2 cells (Oil Red O); format: cell-based, human; conditions: 24 h
Description: For the lipid accumulation experiment, HepG2 cells were incubated for 24 h in DMEM containing 0.5 × 10^−3 M of a mixture of free fatty acids (FFA; oleic acid: palmitic acid = 2:1) and 1% FFA‐free bovine serum albumin to induce intracellular lipid accumulation, together with B6 treatment.
Cells were fixed with 4% paraformaldehyde, followed by sequential staining with Oil Red O and hematoxylin.

[1] = Tissue distribution study in ICR mice (i.p.); format: in vivo; conditions: i.p. at 5 mg/kg; 0.17, 0.5 and 1 h
Description: For the distribution experiment, compound was dissolved in solution containing 10% DMAC, 40% PEG‐400, and 50% water and was delivered to […] male ICR mice by intraperitoneal injection (i.p.) at a dose of 5 mg kg^−1. Then three […] were sacrificed for each 0.17, 0.5, and 1 h time period. Subsequently, the heart, liver, spleen, lung, and kidney were immediately collected. Blood samples were obtained via cardiac puncture and processed by centrifugation to retrieve the plasma fraction. Tissues were flushed with normal saline, dried, weighed, and then homogenized in 5 mL methanol. Tissue samples were centrifuged at 4000 g, and supernatants were stored in freezer at −80 °C before analyzing. 20 µL of the reconstitution solution were analyzed via LC‐MS system. The 8‐week‐old male C57BL/6J mice were provided by GemPharmatech (Nanjing, China).

HDAC6 = target: T1, HDAC6 (Homo sapiens, UniProt Q9UBN7); assay: In vitro HDACs inhibition fluorescence assay, HDAC6; format: biochemical; conditions: mean ± SEM
T1 construct: purchased BPS Bioscience
T1 sequence (Q9UBN7 whole entry): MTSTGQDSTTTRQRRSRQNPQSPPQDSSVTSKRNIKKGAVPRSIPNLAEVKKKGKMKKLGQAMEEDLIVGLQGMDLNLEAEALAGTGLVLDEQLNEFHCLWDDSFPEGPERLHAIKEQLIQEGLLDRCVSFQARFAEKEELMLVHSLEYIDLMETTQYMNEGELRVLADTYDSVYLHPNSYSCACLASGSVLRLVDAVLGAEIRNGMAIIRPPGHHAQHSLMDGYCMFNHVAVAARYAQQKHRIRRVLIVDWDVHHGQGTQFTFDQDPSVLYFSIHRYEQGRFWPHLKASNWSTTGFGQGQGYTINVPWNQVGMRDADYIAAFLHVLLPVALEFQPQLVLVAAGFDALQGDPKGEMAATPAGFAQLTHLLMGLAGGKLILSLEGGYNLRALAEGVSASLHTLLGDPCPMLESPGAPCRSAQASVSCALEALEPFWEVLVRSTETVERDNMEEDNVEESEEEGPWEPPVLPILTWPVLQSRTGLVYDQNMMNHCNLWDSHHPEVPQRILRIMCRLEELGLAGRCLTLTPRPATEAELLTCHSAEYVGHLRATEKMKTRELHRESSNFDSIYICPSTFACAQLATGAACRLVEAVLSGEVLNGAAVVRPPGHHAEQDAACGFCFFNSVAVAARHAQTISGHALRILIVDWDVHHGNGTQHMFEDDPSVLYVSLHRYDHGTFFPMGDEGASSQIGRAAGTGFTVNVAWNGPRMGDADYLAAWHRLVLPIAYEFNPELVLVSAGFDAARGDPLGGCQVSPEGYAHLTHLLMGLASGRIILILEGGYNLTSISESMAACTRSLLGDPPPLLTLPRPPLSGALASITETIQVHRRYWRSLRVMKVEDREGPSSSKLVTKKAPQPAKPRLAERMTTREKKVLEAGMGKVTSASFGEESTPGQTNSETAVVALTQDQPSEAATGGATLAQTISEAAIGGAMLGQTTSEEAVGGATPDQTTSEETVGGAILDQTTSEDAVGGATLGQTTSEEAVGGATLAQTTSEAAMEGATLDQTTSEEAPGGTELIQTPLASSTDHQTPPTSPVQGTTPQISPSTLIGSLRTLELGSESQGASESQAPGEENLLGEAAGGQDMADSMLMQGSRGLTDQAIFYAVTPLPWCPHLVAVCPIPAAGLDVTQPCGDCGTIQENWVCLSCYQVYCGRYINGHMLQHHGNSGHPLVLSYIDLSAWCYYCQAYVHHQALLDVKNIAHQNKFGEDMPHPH
Description: (§1) In Vitro HDACs Inhibition Fluorescence Assay: For the inhibitory activity against HDAC1‐10, enzymes were also procured from BPS Bioscience. The in vitro […] inhibition assays were conducted following the established method described previously.^[ [45] ^] The working concentrations of HDAC1‐10 were 4 × 10^−9 M. The fluorogenic substrate of HDAC1, 2, 3, and 6 was Boc‐Lys (acetyl)‐AMC, and the substrate of HDAC4, 5, 7, 8, 9, and 10 was Boc‐Lys (trifluoroacetyl) AMC. The developer solution consists of 30 mg mL^−1 trypsin and 5 × 10^−6 M TSA. A standing period of 30 min was sufficient before assessing the fluorescence intensity.

[2] = Hydrophilicity / dissolution in 5% DMSO aqueous solution (HPLC); format: physicochemical; conditions: Figure S2
Description: Figure S2. (A) Liquid chromatograms of compounds A8 and B6 in methanol and 5% DMSO aqueous solution, respectively. The chromatograms were determined with an Agilent 1260 HPLC, using an Agilent 5 TC-C18 column (5 μm, 250mm× 4.6 mm). The eluent system was made up of solvent A (water) and solvent B (methanol). Elution conditions: phase B was 85% The peaks were detected at 254 nm at a flow rate was 1.0 mL/min. (B) The peak areas of serially diluted compound B6 were determined under the above-mentioned liquid chromatographic conditions, and a linear regression equation was fitted. (C) The dissolution status/solubility condition of compounds A8 and B6 in a 5% DMSO aqueous solution.

AML12 cells = assay: Mitochondrial activity (Mito-Tracker, Seahorse OCR) in FFA-treated AML12 cells; format: cell-based
HDAC7 = target: T2, HDAC7 (Homo sapiens, UniProt Q8WUI4); assay: In vitro HDACs inhibition fluorescence assay, HDAC7; format: biochemical; conditions: mean ± SEM
T2 construct: purchased BPS Bioscience
T2 sequence (Q8WUI4 whole entry): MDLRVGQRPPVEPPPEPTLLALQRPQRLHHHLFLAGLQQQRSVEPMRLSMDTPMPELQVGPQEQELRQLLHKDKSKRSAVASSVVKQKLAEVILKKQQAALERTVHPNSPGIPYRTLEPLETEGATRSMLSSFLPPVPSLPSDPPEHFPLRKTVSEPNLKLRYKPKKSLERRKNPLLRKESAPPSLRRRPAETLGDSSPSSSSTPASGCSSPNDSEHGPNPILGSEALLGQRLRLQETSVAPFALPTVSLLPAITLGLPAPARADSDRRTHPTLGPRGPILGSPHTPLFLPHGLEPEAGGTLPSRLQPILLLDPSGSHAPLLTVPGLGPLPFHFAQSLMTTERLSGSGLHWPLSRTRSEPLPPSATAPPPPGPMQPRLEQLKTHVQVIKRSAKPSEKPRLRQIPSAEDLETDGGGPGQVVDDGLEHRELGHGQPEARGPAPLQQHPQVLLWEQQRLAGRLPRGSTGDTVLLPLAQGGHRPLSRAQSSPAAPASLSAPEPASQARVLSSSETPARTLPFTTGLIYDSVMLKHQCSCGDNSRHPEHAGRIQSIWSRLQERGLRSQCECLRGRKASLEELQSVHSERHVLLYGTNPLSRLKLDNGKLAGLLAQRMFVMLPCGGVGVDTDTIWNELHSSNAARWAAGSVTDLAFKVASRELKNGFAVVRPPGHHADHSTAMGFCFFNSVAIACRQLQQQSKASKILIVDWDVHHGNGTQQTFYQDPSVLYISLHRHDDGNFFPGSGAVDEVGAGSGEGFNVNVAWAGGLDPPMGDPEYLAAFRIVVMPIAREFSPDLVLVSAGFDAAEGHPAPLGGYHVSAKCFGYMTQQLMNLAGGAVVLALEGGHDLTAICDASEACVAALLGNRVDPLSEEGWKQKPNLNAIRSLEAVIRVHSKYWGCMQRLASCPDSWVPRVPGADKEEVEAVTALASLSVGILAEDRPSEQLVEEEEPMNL
Description: as §1

HDAC9 = target: T3, HDAC9 (Homo sapiens, UniProt Q9UKV0); assay: In vitro HDACs inhibition fluorescence assay, HDAC9; format: biochemical; conditions: mean ± SEM
T3 construct: purchased BPS Bioscience
T3 sequence (Q9UKV0 whole entry): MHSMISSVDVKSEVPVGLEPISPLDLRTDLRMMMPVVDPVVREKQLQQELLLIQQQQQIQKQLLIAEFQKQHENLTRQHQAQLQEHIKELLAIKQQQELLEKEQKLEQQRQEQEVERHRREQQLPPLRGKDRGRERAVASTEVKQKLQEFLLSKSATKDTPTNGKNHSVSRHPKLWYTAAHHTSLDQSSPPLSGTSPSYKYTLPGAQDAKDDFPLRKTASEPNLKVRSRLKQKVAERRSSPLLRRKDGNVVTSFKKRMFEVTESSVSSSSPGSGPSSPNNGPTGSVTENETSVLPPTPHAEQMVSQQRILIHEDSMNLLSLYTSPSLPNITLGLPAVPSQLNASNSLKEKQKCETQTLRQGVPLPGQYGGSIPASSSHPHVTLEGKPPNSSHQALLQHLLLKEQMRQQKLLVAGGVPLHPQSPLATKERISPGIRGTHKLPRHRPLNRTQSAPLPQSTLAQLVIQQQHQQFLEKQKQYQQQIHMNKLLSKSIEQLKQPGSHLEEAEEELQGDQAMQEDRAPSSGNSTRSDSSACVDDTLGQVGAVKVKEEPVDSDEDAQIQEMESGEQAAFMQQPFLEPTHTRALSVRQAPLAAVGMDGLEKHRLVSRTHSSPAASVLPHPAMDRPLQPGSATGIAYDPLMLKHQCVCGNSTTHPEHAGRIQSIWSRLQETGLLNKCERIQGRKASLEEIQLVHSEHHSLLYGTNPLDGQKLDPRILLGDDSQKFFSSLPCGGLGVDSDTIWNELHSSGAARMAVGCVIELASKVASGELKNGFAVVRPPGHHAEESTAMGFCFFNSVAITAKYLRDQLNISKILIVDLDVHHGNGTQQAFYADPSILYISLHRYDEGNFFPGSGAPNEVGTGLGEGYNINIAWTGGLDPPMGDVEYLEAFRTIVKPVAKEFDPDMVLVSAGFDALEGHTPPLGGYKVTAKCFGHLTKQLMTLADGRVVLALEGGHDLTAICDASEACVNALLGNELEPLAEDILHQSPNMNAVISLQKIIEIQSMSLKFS
Description: as §1

HDAC11 = target: T4, HDAC11 (Homo sapiens, UniProt Q96DB2); assay: HDAC11 inhibition fluorescence assay (ETDKmyr substrate); format: biochemical
T4 construct: The HDAC11 enzyme was a full‐length human recombinant HDAC enzyme sourced from BPS Bioscience; purchased BPS Bioscience
T4 sequence (Q96DB2 1-347): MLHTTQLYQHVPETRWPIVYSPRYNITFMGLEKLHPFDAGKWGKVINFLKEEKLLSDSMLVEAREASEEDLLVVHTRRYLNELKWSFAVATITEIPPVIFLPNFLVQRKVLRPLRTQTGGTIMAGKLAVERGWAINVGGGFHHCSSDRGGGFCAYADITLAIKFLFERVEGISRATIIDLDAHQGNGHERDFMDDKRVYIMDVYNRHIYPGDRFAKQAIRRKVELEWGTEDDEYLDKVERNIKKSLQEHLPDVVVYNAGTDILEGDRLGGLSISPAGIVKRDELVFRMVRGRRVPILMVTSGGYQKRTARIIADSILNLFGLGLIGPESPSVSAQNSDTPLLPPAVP
Description: The HDAC11 enzyme was a full‐length human recombinant HDAC enzyme sourced from BPS Bioscience. In detail, a total of 20 µL of recombinant HDAC11 enzyme solution (working concentration = 1 × 10^−9 M) was combined with varying concentrations of the test compound (20 µL) in a 96‐well black plate. The mixture was then incubated at a temperature of 30 °C for a duration of 1 h. Subsequently, 10 µL of the specific fluorogenic substrate (ETDKacyl‐Kmyr) was added. Following 2 h incubation at 30 °C, the catalytic reaction was ceased by adding 10 µL of a developer solution consisting of 2 mg mL^−1 trypsin and 5 × 10^−6 M trichostatin A (TSA). After a standing period of 6 h, the fluorescence intensity was assessed using a microplate reader at excitation and emission wavelengths of 360 and 460 nm, respectively. The inhibition ratios were calculated based on the fluorescence intensity readings of the test wells compared to the control wells. GraphPad Prism 8.0 software was employed to generate IC 50 curves and determine the corresponding IC 50 values utilizing the “log(inhibitor) versus normalized response‐variable slope” function.

HDAC2 = target: T5, HDAC2 (Homo sapiens, UniProt Q92769); assay: In vitro HDACs inhibition fluorescence assay, HDAC2; format: biochemical; conditions: mean ± SEM
T5 construct: purchased BPS Bioscience
T5 sequence (Q92769 whole entry): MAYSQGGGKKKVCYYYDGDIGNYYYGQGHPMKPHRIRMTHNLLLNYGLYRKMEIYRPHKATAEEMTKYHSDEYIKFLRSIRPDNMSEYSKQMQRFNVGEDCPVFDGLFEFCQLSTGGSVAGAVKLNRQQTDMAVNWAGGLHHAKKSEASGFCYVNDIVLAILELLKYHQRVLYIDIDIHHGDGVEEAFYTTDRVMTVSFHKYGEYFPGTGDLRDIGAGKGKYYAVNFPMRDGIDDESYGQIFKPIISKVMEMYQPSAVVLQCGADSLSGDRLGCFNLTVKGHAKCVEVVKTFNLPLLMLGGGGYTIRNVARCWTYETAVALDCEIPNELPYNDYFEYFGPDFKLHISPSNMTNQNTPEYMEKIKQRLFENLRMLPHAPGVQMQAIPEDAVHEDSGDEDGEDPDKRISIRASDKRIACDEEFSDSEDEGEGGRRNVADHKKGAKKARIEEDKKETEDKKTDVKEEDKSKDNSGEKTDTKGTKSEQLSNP
Description: as §1

HDAC4 = target: T6, HDAC4 (Homo sapiens, UniProt P56524); assay: In vitro HDACs inhibition fluorescence assay, HDAC4; format: biochemical; conditions: mean ± SEM
T6 construct: purchased BPS Bioscience
T6 sequence (P56524 whole entry): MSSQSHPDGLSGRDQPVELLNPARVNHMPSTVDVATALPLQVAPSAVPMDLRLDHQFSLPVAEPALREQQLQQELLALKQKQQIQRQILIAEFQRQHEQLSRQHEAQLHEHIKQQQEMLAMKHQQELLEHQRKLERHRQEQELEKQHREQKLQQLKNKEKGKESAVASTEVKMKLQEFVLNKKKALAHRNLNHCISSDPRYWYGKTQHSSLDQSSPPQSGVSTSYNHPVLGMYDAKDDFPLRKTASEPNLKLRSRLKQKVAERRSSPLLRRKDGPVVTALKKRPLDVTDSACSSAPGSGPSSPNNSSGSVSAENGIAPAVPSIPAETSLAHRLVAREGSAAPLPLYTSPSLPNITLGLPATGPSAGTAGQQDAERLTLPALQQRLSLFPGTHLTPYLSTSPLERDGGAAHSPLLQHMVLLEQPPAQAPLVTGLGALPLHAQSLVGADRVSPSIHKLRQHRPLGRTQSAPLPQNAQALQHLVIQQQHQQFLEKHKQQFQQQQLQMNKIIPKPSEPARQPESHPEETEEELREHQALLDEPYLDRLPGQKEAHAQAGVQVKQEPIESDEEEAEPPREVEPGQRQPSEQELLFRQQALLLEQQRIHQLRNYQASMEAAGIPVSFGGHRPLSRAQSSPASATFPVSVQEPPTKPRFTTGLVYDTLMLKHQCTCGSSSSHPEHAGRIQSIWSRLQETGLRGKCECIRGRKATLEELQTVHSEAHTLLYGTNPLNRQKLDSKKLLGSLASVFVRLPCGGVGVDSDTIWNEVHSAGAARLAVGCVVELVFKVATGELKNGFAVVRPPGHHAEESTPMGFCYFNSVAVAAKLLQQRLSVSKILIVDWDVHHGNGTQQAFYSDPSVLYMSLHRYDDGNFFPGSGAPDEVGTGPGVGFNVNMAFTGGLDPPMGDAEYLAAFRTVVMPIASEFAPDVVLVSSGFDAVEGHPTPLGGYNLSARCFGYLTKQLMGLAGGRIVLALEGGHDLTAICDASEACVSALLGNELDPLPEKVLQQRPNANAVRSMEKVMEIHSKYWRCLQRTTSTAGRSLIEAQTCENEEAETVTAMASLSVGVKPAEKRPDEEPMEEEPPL
Description: as §1

myristoylation of SHMT2 = assay: Click chemistry assay of SHMT2 myristoylation in HEK293T cells; format: cell-based; conditions: HEK293T cells, 0.25, 0.5 and 1 × 10^−6 M, 24 h
Description: For click chemistry experiment, HEK293T cells were first incubated with B6 for 24 h, followed by treatment with Alk14 for 4 h prior to harvest.
After the treatment mentioned in Section 4.2, HepG2 cells were lysed in 1% SDS lysis buffer (50 × 10^−3 M Tris‐HCl pH 8.0, 1% (w/v) SDS) with protease‐phosphatase inhibitor cocktail (ThermoFisher).^[ [47] ^] Click chemistry reactions were performed using commercially available reagents as per manufacturer instructions. 100 µg labeled protein was incubated with 50 µL of streptavidin magnetic beads overnight at 4 °C with end‐over‐end rotation. Following incubation, the beads were collected and rinsed three times with washing buffer. After the final wash, the supernatant was discarded, sample buffer was added to the beads and boiled at 95 °C for 5 min. The samples were further analyzed via western blotting using antibody specific for detection of endogenous SHMT2.

With `CCCCCOCCCCCNNC(=O)c1ccc(CNC(=O)c2ccccc2)cc1` [B6] the FFA-induced lipid accumulation (HepG2 cells) was “Comparable reduction in lipid accumulation”, the “tissue distribution (blood, heart, liver, spleen, lung, kidney)” value [1] was “highest concentrations observed in the liver and kidneys” and the IC50 (HDAC6) was over 10 µM. For the same compound, the “hydrophilicity relative to parent compound A8” value [2] was “improved the hydrophilicity”, the “FFA-inhibited mitochondrial activity (Mito-Tracker staining)” value (AML12 cells) was “ameliorated” and the “mitochondrial stress test (OCR, basal and maximal respiration)” value (AML12 cells; FFA) was “partially restored mitochondrial activity”. For the same compound, the IC50 (HDAC7) was over 10 µM, the IC50 (HDAC9) was over 10 µM and the IC50 (HDAC11) was 0.0511 µM. The IC50 (HDAC2) was over 10 µM, the IC50 (HDAC4) was over 10 µM and the “myristoylation of SHMT2” value (myristoylation of SHMT2) was “markedly increase”.
